{"source": "patent US7045531B1", "about": "“Composition comprising a metal chelator and a method of treating amyloidosis by administering the metal chelator” (The General Hospital Corporation, priority 1997, dated 2006)", "key": {"[1]": {"target": "Aβ1-42 (Homo sapiens, UniProt P05067)", "sequence (P05067 672-713 limits assumed)": "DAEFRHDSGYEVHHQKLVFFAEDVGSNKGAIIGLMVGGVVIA", "test": "Effect of OH. scavengers on OH. generation by Aβ1-42 (TBARS)", "assay_type": "biochemical", "settings": "scavenger 5 mM; Fe^3+ or Cu^2+", "protocol": "(§1) FIGS. 16A and 16B are graphical representations showing production of the hydroxyl radical (OH.) from the incubation of Aβ in the presence of substoichiometric amounts of Fe^3+ or Cu^2+. […] All data points are means±SD, n=3.\n(§2) The Thiobarbituric Acid-Reactive Substance (TBARS) assay for incubation mixtures with Fe^3+ or Cu^2+ was performed in a 96-well microtiter format modified from established protocols (Gutteridge et al. Biochim. Biophys. Acta 759: 38–41 (1983)). Aβ peptide species (10 μM) or Vitamin C (100 μM), were incubated with Fe^3+ or Cu^2+ (1 μM) and deoxyribose (7.5 mM, Sigma) in PBS, pH 7.4. Following incubation (37° C., 1 hour), glacial (17 M) acetic acid and 2-thiobarburic acid (1%, w/v in 0.05 M NaOH, Sigma) were added and heated (100° C., 10 min). The final mixtures were placed on ice for 1–3 minutes before absorbances at 532 nm were measured. The net absorbance change for each sample were obtained by deducting the absorbance from a control sample consisting of identical chemical components except for the Vitamin C or Aβ peptides."}, "[2]": {"test": "Effect of OH. scavengers on OH. generation by Vitamin C (TBARS)", "assay_type": "biochemical", "settings": "scavenger 5 mM", "protocol": "as §1, §2"}, "[3]": {"tested_on": "Aβ deposits in AD brain tissue", "test": "Chelator-promoted solubilization (extraction) of Aβ from AD brain homogenates, Western blot densitometry", "assay_type": "biochemical, human", "settings": "for Effect of Chelators (% change from control) upon extraction of Aβ: mean of 6 AD brain samples; for chelator concentration of peak Aβ solubilization (lower peak) / chelator concentration of peak Aβ solubilization (upper peak): titration curves", "protocol": "0.5 g of prefrontal cortex was dissected and homogenized in PBS±chelator as indicated. The homogenate was then centrifuged (100,000 g) and the supernatant removed, and a sample taken for western blot assay using anti-Aβ specific antibodies after Tricine PAGE. Densitometry was performed against synthetic peptide standards.\n(§3) Suitable quantities of gray matter from each subject were minced to serve as pools of homogenous tissue. […] To obtain the soluble fraction, the homogenates were centrifuged at 100,000×g for 30 min (Beckman J180, Beckman instruments, Fullerton, Calif.) and the supernatant collected in 1 ml aliquots and stored on ice or immediately frozen at −70° C. In each experiment, all protein was precipitated from 1 ml of supernatant from each treatment group using 1:5 ice cold 10% trichloracetic acid and pelleted in a bench top microfuge (Heraeus, Osteroder, Germany) at 10,000×g. The remaining pellet was frozen at −70° C.\nPrecipitated protein was subjected to SDS polyacrylamide gel electrophoresis (SDS-PAGE) on Novex pre-cast 10–20% Tris-Tricine gels followed by Western transfer onto 0.2 μm nitrocellulose membrane (Biorad, Hercules, Calif.). […] Each gel included two or more lanes containing known quantities of synthetic Aβ which served as internal reference standards. Blot images were captured by a Relisys scanner with transparency adapter (Teco Information Systems, Taiwan, ROC) and densitometry conducted using the NIH Image 1.6 program (National Institutes for Health, USA., Modified for PC by Scion Corporation, Frederick, Md.), calibrated using a step diffusion chart. For quantitation of Aβ in brain extracts, the internal reference standards of synthetic Aβ were utilized to produce standard curves from which values were interpolated."}, "[4]": {"tested_on": "Aβ deposits in age-matched control / healthy brain tissue", "test": "Chelator-promoted solubilization of Aβ from non-AD control brain tissue, Western blot", "assay_type": "biochemical, human", "settings": "chelator 2 mM", "source_text": "Using the same technique, zinc-mediated assembly of Aβ in normal brains was shown. FIGS. 20A and 20B show sedimentable Aβ deposits in healthy brain tissue. The effects of chelators in enhancing Aβ extraction from brain homogenates is also observed in normal tissue. FIG. 20A illustrates a western blot with anti-Aβ antibody of material extracted from an individual with no history of neurological disorder. T=TPEN, E=EGTA, B=bathocuproine.\nas §3\nPrecipitated protein was subjected to SDS polyacrylamide gel electrophoresis (SDS-PAGE) on Novex pre-cast 10–20% Tris-Tricine gels followed by Western transfer onto 0.2 μm nitrocellulose membrane (Biorad, Hercules, Calif.). Aβ was detected using the WO2, G210 or G211 monoclonal antibodies (Ida, N. et al., J. Biol. Chem. 271:22908 (1996)) in combination with HRP-conjugated rabbit anti-mouse IgG (Dako, Denmark), and visualized using chemiluminescence (ECL, Amersham Life Science, Little Chalfont, Buckinghamshire, UK). Each gel included two or more lanes containing known quantities of synthetic Aβ which served as internal reference standards. […] For quantitation of Aβ in brain extracts, the internal reference standards of synthetic Aβ were utilized to produce standard curves from which values were interpolated."}, "[5]": {"test": "Metal reduction assay, Fe^3+ (BP indicator)", "assay_type": "biochemical", "settings": "Fe^3+ 10 μM; PBS pH 7.4; 1 hr, 37° C.", "protocol": "(§4) The metal reduction assay was performed using a 96-well microtiter plate (Costar) based upon a modification of established protocols (Landers, J. W., et al., Amer. Clin. Path. 29:590 (1958); Landers. J. W. et al., Clinica Chimica Acta 3:329 (1958)). Polypeptides (10 μM) or Vitamin C (100 μM), metal ions (10 μM, Fe(NO3)3 or Cu(NO3)2), and reduced metal ion indicators, bathophenanthrolinedisulfonic acid (BP, for Fe^2+, Sigma, 200 μM) or bathocuproinedisulfonic acid (BC, for Cu^+, Sigma, […]), were coincubated in phosphate buffered saline (PBS), pH 7.4, for 1 hr at 37° C. The metal ion solutions were prepared by direct dilution in the buffer from their aqueous stocks purchased from National Institute of Standards and Technology (NIST). Absorbances were then measured at 536 nm (Fe^2+-BP complex) and 483 nm (Cu^+-BC complex), respectively, using a 96-well plate reader (SPECTRAmax 250, Molecular Devices, Calif.). In control samples, both metal ion and indicator were present to determine the background buffer signal. As a further control, both metal ion and peptide were present in the absence of indicator to estimate the contribution of light scattering due to turbidity to the absorbance reading at these wavelengths. The net absorbances (ΔA) at 536 nm or 483 nm were obtained by deducting the absorbances from these controls from the absorbances generated by the peptide and metal in the presence of the respective indicator.\nThe concentrations of reduced metal ions (Fe^2+ or Cu^+) were quantified based on the formula: Fe^2+ or Cu^+ (˜M)=A*10^6/(L*M), where L is the measured equivalent vertical pathlength for a well of 300 μL volume as described in the instrument's specifications manual (0.856 cm for Fe^2+; 1.049 cm for Cu^+); M is the known molecular absorbance (M^−1 cm^−1) which is 7124 (for Fe^2+-BP complex) or 2762 (for Cu^+-BC complex)."}, "[6]": {"test": "Metal reduction assay, Cu^2+ (BC indicator)", "assay_type": "biochemical", "settings": "Cu^2+ 10 μM; PBS pH 7.4; 1 hr, 37° C.", "protocol": "as §4, with “Polypeptides” for “The metal reduction assay was performed using a 96-well microtiter plate (Costar) based upon a modification of established protocols (Landers, J. W., et al., Amer. Clin. Path. 29:590 (1958); Landers. J. W. et al., Clinica Chimica Acta 3:329 (1958)). Polypeptides”"}, "[7]": {"test": "Cu^+ generation / metal reduction (Example 2)", "assay_type": "biochemical", "settings": "10 μM in PBS; Cu^2+ 10 μM; 30 minutes, 37° C.", "protocol": "This method is modified from a protocol assaying serum copper and iron (Landers, J. W., et al., Amer. J. Clin. Path. 29:590 (1958)). It is based on the fact that there are optimal visible absorption wavelengths of 483 nm and 535 nm for Cu^+ complexed with bathocuproinedisulfonic (BC) anion and Fe^2+ coordinated by bathophenanthrolinedisulfonic (BP) anion, respectively.\nAβ (10 μM in PBS, pH 7.4 or 6.8, as shown) was incubated for 30 minutes (37° C.) in the presence of Cu^2+ 10 μM±Zn^2+ 10 μM). Cu^+ levels (n=3, ±SD) were assayed against a standard curve."}, "[8]": {"settings": "chelator 2 mM, mean of AD subjects 1-6"}}, "note": "“Also recorded” adds a separate entry of the source."}
{"compound": "C[S+](C)[O-]", "note": "[DMSO, dimethyl sulfoxide]", "values": [{"measurement": "effect on generation of OH. by Aβ1-42", "setting": "[1]", "value": "neither were able to quench"}, {"measurement": "effect on generation of OH. by Vitamin C", "setting": "[2]; in the presence of Cu^2+", "value": "suppressed"}, {"measurement": "effect on generation of OH. by Vitamin C", "setting": "[2]; in the presence of Fe^3+", "value": "suppressed"}]}
{"compound": "O=C(O)CN(CCOCCOCCN(CC(=O)O)CC(=O)O)CC(=O)O", "note": "[EGTA]", "values": [{"measurement": "Effect of Chelators (% change from control) upon extraction of Aβ", "setting": "[3]; chelator 0.1 mM", "value": 207, "unit": "%"}, {"measurement": "effect on Aβ signal", "setting": "[3]; chelator 2 mM", "value": "virtually abolished the signal for Aβ; also recorded: always produced a diminution in Aβ signal"}, {"measurement": "Effect of Chelators (% change from control) upon extraction of Aβ", "setting": "[3]; chelator 2.0 mM", "value": 46, "unit": "%"}, {"measurement": "chelator concentration of peak Aβ solubilization (lower peak)", "setting": "[3]", "value": "~0.004", "unit": "mM"}, {"measurement": "chelator concentration of peak Aβ solubilization (upper peak)", "setting": "[3]", "value": "~0.1", "unit": "mM"}]}
{"compound": "OC[C@@H](O)[C@@H](O)[C@H](O)[C@H](O)CO", "note": "[Mannitol]", "values": [{"measurement": "effect on generation of OH. by Aβ1-42", "setting": "[1]", "value": "neither were able to quench"}, {"measurement": "effect on generation of OH. by Vitamin C", "setting": "[2]; in the presence of Fe^3+", "value": "suppressed"}]}
{"compound": "c1ccc(CN(CCN(Cc2ccccn2)Cc2ccccn2)Cc2ccccn2)nc1", "note": "[TPEN, N,N,N′,N′-tetrakis [2-pyridyl-methyl]ethylenediamine]", "values": [{"measurement": "mean increase in solubilized Aβ over PBS alone", "setting": "[3]; 6 AD brains", "value": "around 2 fold"}, {"measurement": "Effect of Chelators (% change from control) upon extraction of Aβ", "setting": "[3]; chelator 0.1 mM", "value": 182, "unit": "%"}, {"measurement": "Effect of Chelators (% change from control) upon extraction of Aβ", "setting": "[3]; chelator 2.0 mM", "value": 241, "unit": "%"}, {"measurement": "Extractable Aβ (% of total), mean X", "setting": "[3]; [8]", "value": "(4.6) %"}, {"measurement": "Extractable Aβ, mean X", "setting": "[3]; [8]", "value": 2.73, "unit": "µg/g"}, {"measurement": "X C/PBS", "setting": "[3]; chelator 2 mM, mean with chelator over mean with PBS, AD", "value": 2.60}, {"measurement": "chelator concentration of peak Aβ solubilization (lower peak)", "setting": "[3]", "value": "~0.004", "unit": "mM"}, {"measurement": "chelator concentration of peak Aβ solubilization (upper peak)", "setting": "[3]", "value": "~0.1", "unit": "mM"}, {"measurement": "Extractable Aβ (% of total), mean X", "setting": "[4]; mean of AC subjects 1-5", "value": "(16.7) %"}, {"measurement": "Extractable Aβ, mean X", "setting": "[4]; mean of AC subjects 1-5", "value": 0.40, "unit": "µg/g"}, {"measurement": "X C/PBS", "setting": "[4]; mean with chelator over mean with PBS, AC", "value": 1.6}]}
{"compound": "O=C1O[C@H]([C@@H](O)CO)C(O)=C1O", "note": "[Vitamin C, ascorbic acid]", "values": [{"measurement": "available Fe^3+ reduced", "setting": "[5]", "value": 15, "unit": "%"}, {"measurement": "available Cu^2+ reduced", "setting": "[6]", "value": "reduced Cu^2+ efficiently"}]}
{"compound": "Aβ1-28: Aβ fragment 1-28, purchased", "values": [{"measurement": "available Fe^3+ reduced", "setting": "[5]", "value": "did not significantly facilitate the reduction of Fe^3+"}, {"measurement": "available Cu^2+ reduced", "setting": "[6]", "value": "reduced no Cu^2+"}]}
{"compound": "Aβ1-42: synthetic human Aβ1-42 peptide", "values": [{"measurement": "available Fe^3+ reduced", "setting": "[5]", "value": 50, "unit": "%"}]}
{"compound": "insulin: histidine-containing peptide that can bind copper and zinc", "values": [{"measurement": "available Fe^3+ reduced", "setting": "[5]", "value": "did not significantly facilitate the reduction of Fe^3+"}, {"measurement": "available Cu^2+ reduced", "setting": "[6]", "value": 10, "unit": "%"}, {"measurement": "Cu^2+ reduction / redox reactivity", "setting": "[7]", "value": "no Cu^2+ reduction"}]}
